Reference: patent US11197878B2, “Anti-inflammatory composition including novel quercetin-based compound” (AMOREPACIFIC CORPORATION, priority 2017, dated 2021)

Tested on: skin
Test: Test for skin accumulated stimulus, HRIPT (Human repeated insult patch tests)
Format: in vivo
Set-up: key to skin reactivity (ICDRG criteria): −: negative (no response); ±: doubtful or slight erythema, etc.; +: weak reaction (which is accompanied with no phlyctenule), erythema, papule; ++: severe reaction (which is accompanied with phlyctenule), erythema, papule, phlyctenule; +++: strong reaction, bullae reaction
Conditions: for Number of examinees who exhibited ±, +, or ++ reactivity, 5th: 5th patch; for Number of examinees who exhibited ±, +, or ++ reactivity, 6th: 6th patch; for Number of examinees who exhibited ±, +, or ++ reactivity, 7th: 7th patch; for Number of examinees who exhibited ±, +, or ++ reactivity, 8th: 8th patch; for average reactivity: 9 patches over 3 weeks, 15 examinees, less than 3 is considered a stable composition; for Number of examinees who exhibited ±, +, or ++ reactivity, 9th: 9th patch; for Number of examinees who exhibited ±, +, or ++ reactivity, 1st: 1st patch; for Number of examinees who exhibited ±, +, or ++ reactivity, 2nd: 2nd patch; for Number of examinees who exhibited ±, +, or ++ reactivity, 3rd: 3rd patch; for Number of examinees who exhibited ±, +, or ++ reactivity, 4th: 4th patch
Method: HRIPT (Human repeated insult patch tests) was conducted in order to identify skin accumulated stimulus of quercetin3-O-[3-O″-(E)-p-coumaroyl][β-D-glucopyranosyl-(1→3)-O-α-L-rhamnopyranosyl-(1→6)-O-β-D-glucopyranoside] and quercetin3-O-[3-O″-(E)-p-coumaroyl][α-L-rhamnopyranosyl-(1→6)-O-β-D-glucopyranoside] and to calculate the concentration range that can be used in skin. Specifically, 15 healthy adult examinees were randomly selected, and test compositions in which the compounds were respectively comprised in an amount of 0.5 wt. %, 1 wt. %, and 3 wt. % (the compositions for skin, comprising an emulsifying agent, a stabilizer, purified water, etc. in addition to the compounds) were dropped in the amount of 20 μl per chamber (IQ chamber, Epitest Ltd, Finland), and patched on the right site of the upper back of the examinees, and then, after 24 hours, the patch was replaced with a new patch. A total of 9 patches were conducted, three times a week for total 3 weeks, in such manner, the skin reactions before and after patch were examined every time, and the skin reactions until 48 hours after removing the final patch were observed, and the average reactivity was observed. The skin reaction was determined according to the criteria of International Contact Dermatitis Research Group (ICDRG). In the above table, “New Material 31” refers to quercetin3-O-[3-O″-(E)-p-coumaroyl][β-D-glucopyranosyl-(1→3)-O-α-L-rhamnopyranosyl-(1→6)-O-β-D-glucopyranoside], and “New Material 32” refers to quercetin3-O-[3-O″-(E)-p-coumaroyl][α-L-rhamnopyranosyl-(1→6)-O-β-D-glucopyranoside].

C[C@@H]1O[C@@H](OC[C@H]2O[C@@H](Oc3c(-c4ccc(O)c(O)c4)oc4cc(O)cc(O)c4c3=O)[C@H](O)[C@@H](OC(=O)/C=C/c3ccc(O)cc3)[C@@H]2O)[C@H](O)[C@H](O[C@@H]2O[C@H](CO)[C@@H](O)[C@H](O)[C@H]2O)[C@H]1O [New Material 31, quercetin3-O-[3-O″-(E)-p-coumaroyl][β-D-glucopyranosyl-(1→3)-O-α-L-rhamnopyranosyl-(1→6)-O-β-D-glucopyranoside]]
0 number: Number of examinees who exhibited ±, +, or ++ reactivity, 5th (1 wt. %, line 1 of 3 (±)) | Number of examinees who exhibited ±, +, or ++ reactivity, 5th (1 wt. %, line 2 of 3 (+)) | Number of examinees who exhibited ±, +, or ++ reactivity, 5th (1 wt. %, line 3 of 3 (++)) | Number of examinees who exhibited ±, +, or ++ reactivity, 6th (1 wt. %, line 1 of 3 (±)) | Number of examinees who exhibited ±, +, or ++ reactivity, 6th (1 wt. %, line 2 of 3 (+)) | Number of examinees who exhibited ±, +, or ++ reactivity, 6th (1 wt. %, line 3 of 3 (++)) | Number of examinees who exhibited ±, +, or ++ reactivity, 7th (1 wt. %, line 1 of 3 (±)) | Number of examinees who exhibited ±, +, or ++ reactivity, 7th (1 wt. %, line 2 of 3 (+)) | Number of examinees who exhibited ±, +, or ++ reactivity, 7th (1 wt. %, line 3 of 3 (++)) | Number of examinees who exhibited ±, +, or ++ reactivity, 8th (1 wt. %, line 1 of 3 (±)) | Number of examinees who exhibited ±, +, or ++ reactivity, 8th (1 wt. %, line 2 of 3 (+)) | Number of examinees who exhibited ±, +, or ++ reactivity, 8th (1 wt. %, line 3 of 3 (++)) | Number of examinees who exhibited ±, +, or ++ reactivity, 9th (1 wt. %, line 1 of 3 (±)) | Number of examinees who exhibited ±, +, or ++ reactivity, 9th (1 wt. %, line 2 of 3 (+)) | Number of examinees who exhibited ±, +, or ++ reactivity, 9th (1 wt. %, line 3 of 3 (++)) | Number of examinees who exhibited ±, +, or ++ reactivity, 1st (3 wt. %, line 1 of 3 (±)) | Number of examinees who exhibited ±, +, or ++ reactivity, 1st (3 wt. %, line 2 of 3 (+)) | Number of examinees who exhibited ±, +, or ++ reactivity, 1st (3 wt. %, line 3 of 3 (++)) | Number of examinees who exhibited ±, +, or ++ reactivity, 2nd (3 wt. %, line 1 of 3 (±)) | Number of examinees who exhibited ±, +, or ++ reactivity, 2nd (3 wt. %, line 2 of 3 (+)) | Number of examinees who exhibited ±, +, or ++ reactivity, 2nd (3 wt. %, line 3 of 3 (++)) | Number of examinees who exhibited ±, +, or ++ reactivity, 3rd (3 wt. %, line 1 of 3 (±)) | Number of examinees who exhibited ±, +, or ++ reactivity, 3rd (3 wt. %, line 2 of 3 (+)) | Number of examinees who exhibited ±, +, or ++ reactivity, 3rd (3 wt. %, line 3 of 3 (++)) | Number of examinees who exhibited ±, +, or ++ reactivity, 4th (3 wt. %, line 1 of 3 (±)) | Number of examinees who exhibited ±, +, or ++ reactivity, 4th (3 wt. %, line 2 of 3 (+)) | Number of examinees who exhibited ±, +, or ++ reactivity, 4th (3 wt. %, line 3 of 3 (++)) | Number of examinees who exhibited ±, +, or ++ reactivity, 5th (3 wt. %, line 1 of 3 (±)) | Number of examinees who exhibited ±, +, or ++ reactivity, 5th (3 wt. %, line 2 of 3 (+)) | Number of examinees who exhibited ±, +, or ++ reactivity, 5th (3 wt. %, line 3 of 3 (++)) | Number of examinees who exhibited ±, +, or ++ reactivity, 6th (3 wt. %, line 1 of 3 (±)) | Number of examinees who exhibited ±, +, or ++ reactivity, 6th (3 wt. %, line 2 of 3 (+)) | Number of examinees who exhibited ±, +, or ++ reactivity, 6th (3 wt. %, line 3 of 3 (++)) | Number of examinees who exhibited ±, +, or ++ reactivity, 7th (3 wt. %, line 1 of 3 (±)) | Number of examinees who exhibited ±, +, or ++ reactivity, 7th (3 wt. %, line 2 of 3 (+)) | Number of examinees who exhibited ±, +, or ++ reactivity, 7th (3 wt. %, line 3 of 3 (++)) | Number of examinees who exhibited ±, +, or ++ reactivity, 8th (3 wt. %, line 1 of 3 (±)) | Number of examinees who exhibited ±, +, or ++ reactivity, 8th (3 wt. %, line 2 of 3 (+)) | Number of examinees who exhibited ±, +, or ++ reactivity, 8th (3 wt. %, line 3 of 3 (++)) | Number of examinees who exhibited ±, +, or ++ reactivity, 9th (3 wt. %, line 1 of 3 (±)) | Number of examinees who exhibited ±, +, or ++ reactivity, 9th (3 wt. %, line 2 of 3 (+)) | Number of examinees who exhibited ±, +, or ++ reactivity, 9th (3 wt. %, line 3 of 3 (++))
0: average reactivity (1 wt. %) | average reactivity (3 wt. %)
−: skin reactivity (ICDRG criteria) (within the range of contents 0.5 wt. %, 1 wt. %, 3 wt. %)
